Experimental data as given in ChEMBL document CHEMBL1135262, “Noncovalent tripeptidic thrombin inhibitors incorporating amidrazone, amine and amidine functions at P1” (Bioorg Med Chem Lett, 2002).

Experiments:
[1] = target: Prothrombin (Homo sapiens, UniProt P00734); assay: Binding affinity against human thrombin
[2] = Compound was evaluated for its pharmacokinetic parameter maximum plasma concentration (Cmax) after oral administration to rats; format: ADME, organism-based; design: route oral; settings: rat
[3] = Compound was evaluated for its pharmacokinetic parameter maximum area under curve AUCmax; format: ADME, organism-based; design: time AUCmax; settings: rat, in vivo
[4] = target: T1, Serine protease 1 (Bos taurus, UniProt P00760); assay: Binding affinity against bovine trypsin
T1 sequence (P00760 whole entry): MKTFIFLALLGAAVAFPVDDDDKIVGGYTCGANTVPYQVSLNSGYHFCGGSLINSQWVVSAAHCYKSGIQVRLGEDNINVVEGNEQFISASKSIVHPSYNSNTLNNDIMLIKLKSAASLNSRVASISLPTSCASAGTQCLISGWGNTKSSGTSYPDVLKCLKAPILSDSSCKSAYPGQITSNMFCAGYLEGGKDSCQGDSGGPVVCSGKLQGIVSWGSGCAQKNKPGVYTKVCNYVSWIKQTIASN

[5] = system: Rattus norvegicus; assay: Compound at a dose 1 mg/kg was administered intravenously and evaluated for its ability to inhibit thrombus formation in rat model of venous thrombosis; format: functional; settings: route intravenous
[6] = target: T2, Coagulation factor X (Homo sapiens, UniProt P00742); assay: Compound was evaluated for the binding affinity against human Coagulation factor Xa
[7] = species: Rattus norvegicus; assay: animal or person; settings: iv, read-out: Inhibition
[8] = target: T2, Coagulation factor X; assay: Binding affinity for human Coagulation factor Xa; Inactive
[9] = system: Rattus norvegicus; assay: Compound was evaluated for its ability to inhibit thrombus formation in rat model of venous thrombosis at a dose 0.5 mg/kg; settings: read-out: Inhibition
[10] = system: Rattus norvegicus; assay: Compound was evaluated for its ability to inhibit thrombus formation in rat model of venous thrombosis at a dose 1 mg/kg; settings: read-out: Inhibition
[11] = system: Rattus norvegicus; assay: Compound (dose 5 mg/kg) was administered intravenously and evaluated for its ability to inhibit thrombus formation in rat model of venous thrombosis; value ranges from 30-67%; format: functional; settings: route intravenous
[12] = system: Rattus norvegicus; assay: Compound at a dose 5 mg/kg was administered intravenously and evaluated for its ability to inhibit thrombus formation in rat model of venous thrombosis; value ranges from 30-67%; format: functional; settings: route intravenous

T2 sequence (P00742 41-179 limits assumed): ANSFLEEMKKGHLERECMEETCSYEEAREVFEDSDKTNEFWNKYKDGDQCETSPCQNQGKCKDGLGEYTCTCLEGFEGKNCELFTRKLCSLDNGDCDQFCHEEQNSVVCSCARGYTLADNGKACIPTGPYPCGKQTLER
T2 sequence (P00742 235-488 limits assumed): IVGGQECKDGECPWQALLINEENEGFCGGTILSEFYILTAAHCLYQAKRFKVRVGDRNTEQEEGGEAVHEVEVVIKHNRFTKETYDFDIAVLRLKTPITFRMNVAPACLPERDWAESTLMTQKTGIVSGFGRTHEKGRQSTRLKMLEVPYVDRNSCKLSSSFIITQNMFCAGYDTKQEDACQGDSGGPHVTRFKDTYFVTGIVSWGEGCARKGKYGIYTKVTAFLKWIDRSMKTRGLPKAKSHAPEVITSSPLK

## CS(=O)(=O)N[C@@H](C(=O)N1CCC[C@H]1C(=O)NCc1ccc(C(=N)N)cc1)C(c1ccccc1)c1ccccc1
[1]
  Ki: 0.003 nM
[2]
  Cmax: 2.7 µg/mL
[3]
  AUC: 263 µg·h/mL
[4]
  Ki: 0.7 nM
[5]
  inhibition in vivo at 1 mg/kg: 70%
[6]
  Ki: 300 nM

## CS(=O)(=O)N[C@@H](C(=O)N1CCC[C@H]1C(=O)NCc1ccc(CN)nc1)C(c1ccccc1)c1ccccc1
[1]
  Ki: 6 nM
[4]
  Ki: 220 nM
[7]
  inhibition in vivo at 5 mg/kg: 30%
[8]
  Ki: Not Active

## N=C(NN)c1ccc(CNC(=O)[C@@H]2CCCN2C(=O)[C@H](NCC(=O)O)C(c2ccccc2)c2ccccc2)s1
[1]
  Ki: 31 nM
[4]
  Ki: 1100 nM
[8]
  Ki: Not Active

## CS(=O)(=O)N[C@@H](C(=O)N1CCC[C@H]1C(=O)NCc1ccc(C(=N)N)cc1)C1CCCCC1
[1]
  Ki: 0.5 nM
[4]
  Ki: 9.9 nM
[6]
  Ki: 5000 nM

## CC(=O)N[C@@H](C(=O)N1CCC[C@H]1C(=O)NCc1ccc(C(=N)NN)s1)C(c1ccccc1)c1ccccc1
[1]
  Ki: 105 nM
[8]
  Ki: Not Active

## N=C(N)c1ccc(CNC(=O)[C@@H]2CCCN2C(=O)[C@H](NS(N)(=O)=O)C(c2ccccc2)c2ccccc2)cc1.O=C(O)C(F)(F)F
[1]
  Ki: 0.003 nM
[2]
  Cmax: 2.8 µg/mL
[9]
  inhibition in vivo at 0.5 mg/kg: 80%
[3]
  AUC: 272 µg·h/mL
[4]
  Ki: 0.3 nM
[10]
  inhibition in vivo at 1 mg/kg: 100%

## COP(=O)(N[C@@H](C(=O)N1CCC[C@H]1C(=O)NCc1ccc(C(=N)N)cc1)C(c1ccccc1)c1ccccc1)OC.O=C(O)C(F)(F)F
[1]
  Ki: 0.044 nM
[2]
  Cmax: 4 µg/mL
[3]
  AUC: 271 µg·h/mL
[4]
  Ki: 2.9 nM

## N=C(N)c1ccc(CNC(=O)[C@@H]2CCCN2C(=O)[C@H](N)C(c2ccccc2)c2ccccc2)cc1.O=C(O)C(F)(F)F
[2]
  Cmax: 1.4 µg/mL
[3]
  AUC: 107 µg·h/mL
[4]
  Ki: 2.5 nM

## CS(=O)(=O)N[C@@H](C(=O)N1CCC[C@H]1C(=O)NCc1csc(CN)c1)C(c1ccccc1)c1ccccc1
[4]
  Ki: 606 nM
[7]
  inhibition in vivo at 5 mg/kg: 30%
[6]
  Ki: 100000 nM

## N=C(N)c1ccc(CNC(=O)[C@@H]2CCCN2C(=O)[C@H](NS(=O)(=O)NC2CCCCC2)C(c2ccccc2)c2ccccc2)cc1.O=C(O)C(F)(F)F
[1]
  Ki: 0.003 nM
[2]
  Cmax: < 0.3 µg/mL
[4]
  Ki: 0.25 nM

## CS(=O)(=O)N[C@@H](C(=O)N1CCC[C@H]1C(=O)NCc1ccc(C(=N)NN)cc1)C(c1ccccc1)c1ccccc1
[1]
  Ki: 47 nM
[4]
  Ki: 150 nM
[8]
  Ki: Not Active

## CS(=O)(=O)N[C@@H](C(=O)N1CCC[C@H]1C(=O)NCc1ccc(C(=N)N)s1)C(c1ccccc1)c1ccccc1
[1]
  Ki: 0.005 nM
[4]
  Ki: 0.6 nM
[6]
  Ki: 360 nM

## CS(=O)(=O)N[C@@H](C(=O)N1CCC[C@H]1C(=O)NCc1cc(CN)cs1)C(c1ccccc1)c1ccccc1
[11]
  inhibition in vivo at 5 mg/kg: 30%
[1]
  Ki: 2.4 nM
[4]
  Ki: 68 nM
[8]
  Ki: Not Active

## CS(=O)(=O)N[C@@H](C(=O)N1CCC[C@H]1C(=O)NCc1ccc(CN)cc1)C(c1ccccc1)c1ccccc1
[1]
  Ki: 4 nM
[4]
  Ki: 9.9 nM
[7]
  inhibition in vivo at 5 mg/kg: 30%
[8]
  Ki: Not Active

## CS(=O)(=O)N[C@@H](C(=O)N1CCC[C@H]1C(=O)NCc1cc(C(N)=NN)cs1)C(c1ccccc1)c1ccccc1
[1]
  Ki: 2.2 nM
[4]
  Ki: 250 nM
[6]
  Ki: 59000 nM

## N=C(N)c1ccc(CNC(=O)[C@@H]2CCCN2C(=O)[C@H](NCC(=O)O)C(c2ccccc2)c2ccccc2)cc1.O=C(O)C(F)(F)F
[1]
  Ki: 0.015 nM
[2]
  Cmax: 1.3 µg/mL
[3]
  AUC: 120 µg·h/mL
[4]
  Ki: 3 nM

## N=C(N)c1ccc(CNC(=O)[C@@H]2CCCN2C(=O)[C@H](Nc2ccccc2)C(c2ccccc2)c2ccccc2)cc1.O=C(O)C(F)(F)F
[2]
  Cmax: 0.3 µg/mL
[3]
  AUC: 53 µg·h/mL
[4]
  Ki: 1.5 nM

## CS(=O)(=O)N[C@H](Cc1ccc(Cl)c(Cl)c1)C(=O)N1CCC[C@H]1C(=O)NCc1ccc(C(=N)N)cc1
[1]
  Ki: 0.05 nM
[4]
  Ki: 0.8 nM
[6]
  Ki: 120 nM

## CS(=O)(=O)N[C@H](CC1CCCCC1)C(=O)N1CCC[C@H]1C(=O)NCc1ccc(C(=N)N)cc1
[1]
  Ki: 0.02 nM
[4]
  Ki: 1.3 nM
[6]
  Ki: 200 nM

## CS(=O)(=O)N[C@@H](C(=O)N1CCC[C@H]1C(=O)NCc1ccc(CN)s1)C(c1ccccc1)c1ccccc1
[4]
  Ki: 85 nM
[8]
  Ki: Not Active
[12]
  inhibition in vivo at 5 mg/kg: 30%

## CS(=O)(=O)N[C@@H](C(=O)N1CCC[C@H]1C(=O)NCc1ccc(CN)c(N)c1)C(c1ccccc1)c1ccccc1
[1]
  Ki: 12 nM
[4]
  Ki: 11 nM
[8]
  Ki: Not Active

## CS(=O)(=O)N[C@@H](C(=O)N1CCC[C@H]1C(=O)NCc1ccc(/C(N)=N/N)s1)C(c1ccccc1)c1ccccc1
[4]
  Ki: 12 nM
[6]
  Ki: 193 nM

## CC(=O)N[C@@H](C(=O)N1CCC[C@H]1C(=O)NCc1ccc(C(=N)N)cc1)C(c1ccccc1)c1ccccc1.O=C(O)C(F)(F)F
[1]
  Ki: 0.16 nM
[2]
  Cmax: 3 µg/mL
[3]
  AUC: 244 µg·h/mL

## CC(C)(C)OC(=O)N[C@@H](C(=O)N1CCC[C@H]1C(=O)NCc1ccc(C(=N)NN)s1)C(c1ccccc1)c1ccccc1
[8]
  Ki: Not Active

## N=C(N)c1ccc(CNC(=O)[C@@H]2CCCN2C(=O)[C@H](NS(=O)(=O)Cc2ccccc2)C(c2ccccc2)c2ccccc2)cc1.O=C(O)C(F)(F)F
[1]
  Ki: 0.005 nM
[2]
  Cmax: 0.9 µg/mL
[3]
  AUC: 68 µg·h/mL
[4]
  Ki: 0.58 nM

## N=C(N)c1ccc(CNC(=O)[C@@H]2CCCN2C(=O)[C@H](NS(=O)(=O)O)C(c2ccccc2)c2ccccc2)cc1.O=C(O)C(F)(F)F
[1]
  Ki: 0.1 nM
[2]
  Cmax: 0.55 µg/mL
[3]
  AUC: 35 µg·h/mL
[4]
  Ki: 4.4 nM

## CS(=O)(=O)N[C@@H](C(=O)N1CCC[C@H]1C(=O)NCc1csc(C(=N)NN)c1)C(c1ccccc1)c1ccccc1
[1]
  Ki: 1.8 nM
[4]
  Ki: 540 nM
[8]
  Ki: Not Active

## COC(=O)N[C@@H](C(=O)N1CCC[C@H]1C(=O)NCc1ccc(C(=N)N)cc1)C(c1ccccc1)c1ccccc1.O=C(O)C(F)(F)F
[1]
  Ki: 0.036 nM
[2]
  Cmax: 3.9 µg/mL
[3]
  AUC: 594 µg·h/mL
[4]
  Ki: 0.31 nM

## COC(=O)N[C@@H](C(=O)N1CCC[C@H]1C(=O)NCC#Cc1c[nH]cn1)C(c1ccccc1)c1ccccc1
[4]
  Ki: 24000 nM

## Cc1cc(CNC(=O)[C@@H]2CCCN2C(=O)[C@H](NS(C)(=O)=O)C(c2ccccc2)c2ccccc2)ccc1CN
[1]
  Ki: 32 nM
[4]
  Ki: 110 nM
[8]
  Ki: Not Active
